From patent publication US20250092030A1, “ENHANCERS OF PARTICULATE GUANYLYL CYCLASE RECEPTOR A” (Mayo Foundation for Medical Education and Research, priority 2023, published 2025)
Values joined by “and” are separate entries in the source; they are usually repeats but may differ in a detail not shown here. Equal entries are not always repeated.

Biological target: T1, particulate guanylyl cyclase receptor A (pGC-A) (Homo sapiens, UniProt P16066)
T1 construct: expressed in transfected cells; host or cells: HEK293
T1 sequence (P16066 33-1061): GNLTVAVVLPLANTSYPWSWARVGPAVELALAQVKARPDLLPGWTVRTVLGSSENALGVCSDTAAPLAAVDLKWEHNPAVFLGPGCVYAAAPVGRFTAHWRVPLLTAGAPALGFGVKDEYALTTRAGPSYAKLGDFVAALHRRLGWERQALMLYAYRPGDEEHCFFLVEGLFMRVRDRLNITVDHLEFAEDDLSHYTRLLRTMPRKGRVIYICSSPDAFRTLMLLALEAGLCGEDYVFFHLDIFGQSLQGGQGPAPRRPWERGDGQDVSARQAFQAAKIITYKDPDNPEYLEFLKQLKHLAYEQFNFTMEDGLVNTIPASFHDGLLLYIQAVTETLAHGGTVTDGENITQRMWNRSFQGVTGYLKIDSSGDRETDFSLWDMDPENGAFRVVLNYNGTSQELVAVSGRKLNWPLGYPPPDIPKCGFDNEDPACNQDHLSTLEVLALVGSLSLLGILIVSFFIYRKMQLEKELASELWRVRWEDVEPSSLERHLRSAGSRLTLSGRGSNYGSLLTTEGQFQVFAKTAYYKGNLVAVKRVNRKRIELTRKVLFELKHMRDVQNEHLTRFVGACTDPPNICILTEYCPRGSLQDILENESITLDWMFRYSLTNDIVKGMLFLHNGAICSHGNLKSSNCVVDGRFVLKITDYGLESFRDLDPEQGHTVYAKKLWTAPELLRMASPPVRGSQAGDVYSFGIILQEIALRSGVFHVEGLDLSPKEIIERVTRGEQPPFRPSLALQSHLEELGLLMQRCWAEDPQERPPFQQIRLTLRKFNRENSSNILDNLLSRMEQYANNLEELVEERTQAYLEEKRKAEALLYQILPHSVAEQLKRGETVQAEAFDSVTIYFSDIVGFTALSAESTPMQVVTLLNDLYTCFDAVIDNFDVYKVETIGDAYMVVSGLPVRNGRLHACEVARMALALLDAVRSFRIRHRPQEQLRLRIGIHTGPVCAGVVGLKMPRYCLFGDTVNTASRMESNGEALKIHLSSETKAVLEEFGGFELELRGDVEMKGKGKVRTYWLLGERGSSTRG
T1 sequence (P01160 124-151 partner limits assumed): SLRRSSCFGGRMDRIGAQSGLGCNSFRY
Experiment: cGMP production by HTRF in HEK293 cells overexpressing pGC-A, with ANP
Assay type: cell-based
Conditions: for EC50 / Max efficacy: HEK293 cells overexpressing pGC-A; for EC50: test compound plus EC20 concentration of ANP, cGMP by HTRF; for Emax: HEK293, HEK293 cells overexpressing pGC-A, read-out: Max efficacy; for Emax / Max efficacy: cGMP normalized to maximal amount produced by an EC80 concentration of ANP
Excerpt: Assay: Generally, the assay monitors the production of cGMP, the second messenger generated by pGC-A, by Time-Resolved Florescence (HTRF) in HEK293 cells overexpressing the pGC-A. pGC-A suspension cells were stimulated in the presence of the test compound and an EC20 concentration of ANP. The quantity of cGMP was detected by competitive immunoassay using Eu^3+ cryptate-labeled anti-cGMP and d2-labeled cGMP and normalized to maximal amount produced by an EC80 concentration of ANP. Compound EC50 values were determined in the primary assay, in the presence or absence of ANP, to determine mode of action as positive modulators and tested for selectivity in the same assay platform but in HEK cells overexpressing the particulate guanylyl cyclase B receptor (pGC-B), of which CNP is the endogenous ligand.
Assay details: 20 nL of 10 μM test compound in DMSO was added to columns 5-48 of 1536 well white high base screening plates (Corning, New York, NY) cells using 550 ECHO acoustic dispenser (Labcyte, San Jose, CA). Alpha-atrial natriuretic peptide (ANP) (Phoenix Pharmaceutics) was prepared as stock aliquots at 5 μM in PBS with 0.1% BSA. An approximate […] concentration of ANP ([…]) in assay buffer (HBSS containing 5 mM HEPES and 0.05% BSA) was added to columns 3-48 at a volume of 1 μL. Assay buffer only was added to column 1 and assay buffer containing a saturating concentration of ANP (5 nM) was added to column 2. HEK293 cells overexpressing GC-A were resuspended in assay media (OptimMem media containing 2% Heat-inactivated Fetal bovine serum and L-glutamine) at a density of 6×10^5 cells/mL and 2 μL were plated in screening plates (1200 cells/well) in suspension using a Bioraptr 2. Plates were spun at 1000 rpm for 1 min and incubated for 30 min at room temperature. 1.5 μL d2-labeled cGMP followed by 1.5 μL Eu^3+ cryptate-labeled anti-cGMP cGMP detection kit (CiBio; #62GM2PEC) prepared according to manufacturer's protocol were added to all wells using a Bioraptr 2 and TR-FRET signal was detected on an EnVision detector (PerkinElmer). Wells treated with 0.3% DMSO only serve as blank controls (column 1); wells treated with 0.3% DMSO and 5 nM ANP (columns 2) serve as positive controls and wells treated with 0.3% DMSO and […] ANP (columns 3-4) serve as negative controls.

Compound | EC50 | Emax | Max efficacy
CN(C)CCN1CCCC(C(=O)Nc2ccc3cccc(F)c3n2)C1 (centres unmarked) [compound 191] | > 5 µM | – | –
Nc1cc(N2CCCC(C(=O)Nc3nc4c(F)cc(F)cc4s3)C2)ccn1 (centres unmarked) [compound 108] | 0.6 µM | 88% | –
O=C(Nc1nc2c(F)cc(F)cc2s1)C1CCCN(CCN2CCOC2=O)C1 (centres unmarked) [compound 241] | 1.6 µM | 93% | –
O=C(Nc1nc2c(F)cc(F)cc2s1)C1CCCN(c2ccncn2)C1 (centres unmarked) [compound 109] | 0.2 µM and 1.08 µM | 82% | 74%
Cc1cc(N2CCCC(C(=O)Nc3nc4c(F)cc(F)cc4s3)C2)ccn1 (centres unmarked) [compound 105] | 0.09 µM | 87% | –
CN(C)CCN1CCCC(C(=O)Nc2nc3cc(Cl)ccc3s2)C1 (centres unmarked) [compound 011] | > 10 µM | – | –
O=C(Nc1nc2c(F)cc(F)cc2s1)C12CCC(CC1)NC2 [compound 062] | 3.4 µM | 92% | –
Cc1cncnc1N1CCCC(C(=O)Nc2nc3c(F)cc(F)cc3s2)C1 (centres unmarked) [compound 111] | 0.4 µM | 65% | –
COC(=O)c1cc(F)c2nc(NC(=O)C3CCCN(CCN(C)C)C3)sc2c1 (centres unmarked) [compound 023] | > 5 µM | – | –
CN(C)C(=O)N1CCCC(C(=O)Nc2nc3c(Cl)cc(F)cc3s2)C1 (centres unmarked) [compound 282] | 0.18 µM | 61% | –
Cc1cc(F)c2nc(NC(=O)C3CCCN(CCN(C)C)C3)sc2c1 (centres unmarked) [compound 020] | 0.9 µM | 101% | –
CN(C)CCC1CCN(c2nc3c(F)cc(F)cc3s2)C(=O)C1 (centres unmarked) [compound 220] | > 5 µM | – | –
CN(C)CCN1CC(C(=O)Nc2nc3c(F)cc(F)cc3s2)Cc2ccccc21 (centres unmarked) [compound 057] | > 5 µM | – | –
CCN(C)C(=O)N1CCCC(C(=O)Nc2nc3c(F)cc(F)cc3s2)C1 (centres unmarked) [compound 274] | 3.6 µM and 1.2 µM | 62% | 72%
COCc1cc(F)c2nc(NC(=O)C3CCCNC3)sc2c1 (centres unmarked) [compound 030] | > 5 µM | – | –
CN(C)CCN1CCCC(C(=O)Nc2nc3c(Cl)ccc(Cl)c3s2)C1 (centres unmarked) [compound 252] | > 5 µM | – | –
CN(CCO)CCN1CCCC(C(=O)Nc2nc3c(F)cc(F)cc3s2)C1 (centres unmarked) [compound 242] | 0.7 µM | 105% | –
O=C(Nc1nc2c(F)cc(F)cc2s1)C1CNCCO1 (centres unmarked) [compound 047] | > 5 µM | – | –
CN1CCC(CN2CCCC(C(=O)Nc3nc4c(F)cc(F)cc4s3)C2)CC1 (centres unmarked) [compound 075] | 1.5 µM | 92% | –
CN(C)CCN1CCCC(C)(C(=O)Nc2nc3c(F)cc(F)cc3s2)C1 (centres unmarked) [compound 228] | > 5 µM | – | –
CN(C)CCN1CCCC(C(=O)Nc2nc3cccc(Cl)c3s2)C1 (centres unmarked) [compound 033] | 2.2 µM and 1.2 µM | 82% | 63%
CN(C)CCN1CCCC(NC(=O)c2nc3c(F)cc(F)cc3s2)C1 (centres unmarked) [compound 217] | > 10 µM | – | –
CN(C)CCN1CCCC(C(=O)Nc2nc3c(F)cc(F)cc3[nH]2)C1 (centres unmarked) [249a] | > 5 µM | – | –
COc1cc(N2CCCC(C(=O)Nc3nc4c(F)cc(F)cc4s3)C2)ccn1 (centres unmarked) [compound 107] | 2.1 µM | 101% | –
Cc1cccc2nc(NC(=O)C3CCCN(CCN(C)C)C3)sc12 (centres unmarked) [compound 034] | 5.9 µM | 99% | –

Continued, values first:

EC50 | Emax | Max efficacy | Compound
> 10 µM | – | – | Cc1ccc2nc(NC(=O)C3CCCN(CCN(C)C)C3)sc2c1 (centres unmarked) [compound 017]
> 5 µM | – | – | CN(C)CCN1CCCC(C(=O)Nc2nc(-c3cccc(F)c3)cs2)C1 (centres unmarked) [compound 146]
0.7 µM | – | – | N[C@@H]1CCC[C@H](C(=O)Nc2nc3c(F)cc(F)cc3s2)C1 [compound 208]
1.53 µM | – | – | CN(C)CCN[C@@H]1CCCC[C@@H]1C(=O)Nc1nc2c(F)cc(F)cc2s1 [compound 211]
> 10 µM | – | – | O=C(Nc1nc2c(F)cc(F)cc2s1)c1ccccc1Cl [compound 200]
> 5 µM | – | – | COCCOc1ccc(-c2csc(NC(=O)C3CCCN(CCN(C)C)C3)n2)cc1 (centres unmarked) [compound 160]
> 5 µM | – | – | CN(C)CCN[C@@H]1CCC[C@H](C(=O)Nc2nc3c(F)cc(F)cc3s2)C1 [compound 207]
1.1 µM | 46% | – | CC(=O)N1CC(N2CCCC(C(=O)Nc3nc4c(Cl)cc(F)cc4s3)C2)C1 (centres unmarked) [compound 138]
> 5 µM | – | – | O=C(O)C1CNCC(C(=O)Nc2nc3c(F)cc(F)cc3s2)C1 (centres unmarked) [compound 271]
> 5 µM | – | – | CN(C)CCN1CCCC(C(=O)Nc2nc3c(F)cc(C(F)(F)F)cc3s2)C1 (centres unmarked) [compound 019]
> 10 µM | – | – | COc1cccc(C(=O)Nc2nc3c(F)cc(F)cc3s2)c1 [compound 204]
1.3 µM | 74% | – | O=C(Nc1nc2c(F)cc(F)cc2s1)C1CCCN(CCN2CCCC2C(=O)O)C1 (centres unmarked) [compound 259]
> 5 µM | – | – | O=C(Nc1nc2c(F)cc(F)cc2s1)C1CCCN(C(=O)Nc2ccccc2)C1 (centres unmarked) [compound 280]
1.3 µM | 53% | – | CNC(=O)N1CCCC(C(=O)Nc2nc3c(F)cc(F)cc3s2)C1 (centres unmarked) [compound 281]
– | – | 74% and 51% | CNCCN1CCCC(C(=O)Nc2nc3c(F)cc(F)cc3s2)C1 (centres unmarked) [compound 237]
> 10 µM | – | – | COc1cccc2sc(NC(=O)C3CCCN(CCN(C)C)C3)nc12 (centres unmarked) [compound 006]
> 5 µM | – | – | CCOc1cc(F)c2nc(NC(=O)C3CCCN(CCN(C)C)C3)sc2c1 (centres unmarked) [compound 026]
> 5 µM | – | – | O=C(Nc1nc2c(F)cc(F)cc2s1)C1CNCc2ccccc21 (centres unmarked) [compound 060]
0.6 µM | 41% | – | CN(C)CCN1CCCC(C(=O)Nc2nc3c(C#N)cccc3s2)C1 (centres unmarked) [compound 007]
– | 87% | – | N[C@@H]1CCCC(C(=O)Nc2nc3c(F)cc(F)cc3s2)C1 (some centres unmarked) [compound 208]
> 5 µM | – | – | CN(C)CCN[C@H]1CCC[C@H](C(=O)Nc2nc3c(F)cc(F)cc3s2)C1 [compound 209]
> 5 µM | – | – | Cc1ccccc1-c1csc(NC(=O)C2CCCN(CCN(C)C)C2)n1 (centres unmarked) [compound 151]
1.02 µM | 94% | – | CN(C)CCN1CC2(C(=O)Nc3nc4c(Cl)cc(F)cc4s3)CCC1CC2 [compound 061]
0.08 µM and 0.2 µM | 89% | 84% | O=C(Nc1nc2c(F)cc(F)cc2s1)C1CCCN(C2CNC2)C1 (centres unmarked) [compound 085]
> 10 µM | – | – | COc1ccc2nc(NC(=O)C3CCCN(CCN(C)C)C3)sc2c1 (centres unmarked) [compound 018]
2.6 µM | 95% | – | O=C(Nc1nc2c(F)cc(F)cc2s1)C1CNc2ccccc2C1 (centres unmarked) [compound 058]
1.4 µM and 2.6 µM | 113% | 113, 113% | CN(C)CCN1CCCC(C(=O)Nc2nc3c(F)cc(Cl)cc3s2)C1 (centres unmarked) [compound 235]
– | 72% | – | O=C(Nc1nc2c(F)cc(F)cc2[nH]1)C1CCCNC1 (centres unmarked) [249b]
